In PubChem BioAssay (NCI):
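96-well plates; 48 h exposure; 5 concentrations. Endpoints by linear interpolation between flanking doses. Not reached: highest tested concentration assigned. GI50 is the concentration that inhibits growth by half. TGI: total growth inhibition.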

Key:
Assay in all cases: NCI anticancer screen, dose series, 48 h
[1] = tested on: 786-0 renal
[2] = tested on: A498 renal
[3] = tested on: A549 NSCLC
[4] = tested on: ACHN renal
[5] = tested on: BT-549 breast
[6] = tested on: CAKI-1 renal
[7] = tested on: CCRF-CEM leukemia
[8] = tested on: DU-145 prostate
[9] = tested on: EKVX NSCLC
[10] = tested on: HCC-2998 colon
[11] = tested on: HCT-116 colon
[12] = tested on: HCT-15 colon
[13] = tested on: HL-60(TB) leukemia
[14] = tested on: HOP-62 NSCLC
[15] = tested on: HOP-92 NSCLC
[16] = tested on: HS 578T breast
[17] = tested on: HT29 colon
[18] = tested on: IGROV1 ovarian
[19] = tested on: K-562 leukemia
[20] = tested on: KM12 colon
[21] = tested on: LOX IMVI melanoma
[22] = tested on: M14 melanoma
[23] = tested on: MALME-3M melanoma
[24] = tested on: MCF7 breast
[25] = tested on: MDA-MB-231 breast
[26] = tested on: MDA-MB-435
[27] = tested on: MOLT-4 leukemia
[28] = tested on: NCI-H226 lung
[29] = tested on: NCI-H23 lung
[30] = tested on: NCI-H460 lung
[31] = tested on: NCI-H522 lung
[32] = tested on: NCI/ADR-RES ovarian
[33] = tested on: OVCAR-3 ovarian
[34] = tested on: OVCAR-4 ovarian
[35] = tested on: OVCAR-5 ovarian
[36] = tested on: OVCAR-8 ovarian
[37] = tested on: PC-3 prostate
[38] = tested on: RPMI-8226 leukemia
[39] = tested on: RXF 393 renal
[40] = tested on: SF-295 CNS
[41] = tested on: SF-539 CNS
[42] = tested on: SK-MEL-2 melanoma
[43] = tested on: SK-MEL-28 melanoma
[44] = tested on: SK-MEL-5 melanoma
[45] = tested on: SK-OV-3 ovarian
[46] = tested on: SN12C renal
[47] = tested on: SNB-19 CNS
[48] = tested on: SR leukemia
[49] = tested on: SW-620 colon
[50] = tested on: T-47D breast
[51] = tested on: TK-10 renal
[52] = tested on: U251 CNS
[53] = tested on: UACC-257 melanoma
[54] = tested on: UACC-62 melanoma
[55] = tested on: UO-31 renal
[56] = tested on: COLO 205 colon
[57] = tested on: SF-268 CNS
[58] = tested on: SNB-75 CNS

Cc1csc(-c2nnc(Nc3ccc(Oc4ncccc4-c4ccnc(N)n4)cc3)c3ccccc23)c1
GI50 [1]: > 100 µM | TGI [1]: > 100 µM | GI50 [2]: > 100 µM | TGI [2]: > 100 µM | GI50 [3]: 1.95 µM | TGI [3]: > 100 µM | GI50 [4]: 2.11 µM | TGI [4]: > 100 µM | GI50 [5]: > 100 µM | TGI [5]: > 100 µM | TGI [6]: > 100 µM | GI50 [7]: 0.234 µM | TGI [7]: > 100 µM | GI50 [8]: 4.61 µM | TGI [8]: > 100 µM | GI50 [9]: > 100 µM | TGI [9]: > 100 µM | GI50 [10]: 2.54 µM | TGI [10]: > 30.2 µM | GI50 [11]: 1.89 µM | TGI [11]: > 100 µM | GI50 [12]: 1.78 µM | TGI [12]: > 100 µM | GI50 [13]: 2.16 µM | TGI [13]: > 100 µM | GI50 [14]: 4.4 µM | TGI [14]: > 100 µM | GI50 [15]: > 100 µM | TGI [15]: > 100 µM | GI50 [16]: > 100 µM | TGI [16]: > 100 µM | GI50 [17]: 0.558 µM | TGI [17]: > 100 µM | GI50 [18]: 3.35 µM | TGI [18]: > 100 µM | GI50 [19]: 3.15 µM | TGI [19]: > 100 µM | GI50 [20]: 2.41 µM | TGI [20]: > 100 µM | GI50 [21]: 0.433 µM | TGI [21]: > 100 µM | GI50 [22]: 1.51 µM | TGI [22]: > 100 µM | GI50 [23]: 1.9 µM | TGI [23]: > 100 µM | GI50 [24]: 0.13 µM | TGI [24]: > 100 µM | GI50 [25]: 4.32 µM | TGI [25]: > 100 µM | GI50 [26]: 2.45 µM | TGI [26]: > 100 µM | GI50 [27]: 3.34 µM | TGI [27]: > 100 µM | GI50 [28]: > 63.8 µM | TGI [28]: > 100 µM | GI50 [29]: 2.9 µM | TGI [29]: > 100 µM | GI50 [30]: 0.0214 µM | TGI [30]: > 100 µM | GI50 [31]: 5.31 µM | TGI [31]: > 69.1 µM | GI50 [32]: 0.355 µM | TGI [32]: > 100 µM | TGI [33]: > 100 µM | GI50 [34]: 6.59 µM | TGI [34]: > 100 µM | GI50 [35]: > 100 µM | TGI [35]: > 100 µM | TGI [36]: > 100 µM | GI50 [37]: > 27.1 µM | TGI [37]: > 100 µM | GI50 [38]: 3.05 µM | TGI [38]: > 100 µM | GI50 [39]: 1.51 µM | TGI [39]: > 100 µM | GI50 [40]: 2.98 µM | TGI [40]: > 100 µM | GI50 [41]: > 100 µM | TGI [41]: > 100 µM | GI50 [42]: 2.71 µM | TGI [42]: > 26.9 µM | GI50 [43]: 2.1 µM | TGI [43]: > 100 µM | GI50 [44]: 71.5 µM | TGI [44]: > 100 µM | GI50 [45]: > 100 µM | TGI [45]: > 100 µM | GI50 [46]: 2.54 µM | TGI [46]: > 100 µM | GI50 [47]: > 100 µM | TGI [47]: > 100 µM | GI50 [48]: < 0.01 µM | TGI [48]: > 100 µM | GI50 [49]: 0.651 µM | TGI [49]: > 100 µM | GI50 [50]: 5 µM | TGI [50]: > 100 µM | GI50 [51]: > 100 µM | TGI [51]: > 100 µM | GI50 [52]: > 100 µM | TGI [52]: > 100 µM | TGI [53]: > 100 µM | GI50 [54]: 0.767 µM | TGI [54]: > 100 µM | TGI [55]: > 100 µM

COc1ccc2nc(NC(=O)CSc3nnc4n3S(=O)(=O)c3ccccc3N4c3ccccc3)sc2c1
GI50 [1]: 12.4 µM | TGI [1]: 93.1 µM | GI50 [2]: > 100 µM | TGI [2]: > 100 µM | GI50 [3]: > 100 µM | TGI [3]: > 100 µM | GI50 [4]: > 100 µM | TGI [4]: > 100 µM | GI50 [5]: > 100 µM | TGI [5]: > 100 µM | GI50 [6]: > 100 µM | TGI [6]: > 100 µM | GI50 [7]: > 100 µM | TGI [7]: > 100 µM | GI50 [56]: > 100 µM | TGI [56]: > 100 µM | GI50 [8]: > 100 µM | TGI [8]: > 100 µM | GI50 [9]: > 100 µM | TGI [9]: > 100 µM | GI50 [10]: > 100 µM | TGI [10]: > 100 µM | GI50 [11]: 94.1 µM | TGI [11]: > 100 µM | GI50 [12]: > 100 µM | TGI [12]: > 100 µM | GI50 [13]: 91.5 µM | TGI [13]: > 100 µM | GI50 [14]: 2.14 µM | TGI [14]: > 100 µM | GI50 [15]: 42.7 µM | TGI [15]: > 100 µM | GI50 [16]: > 100 µM | TGI [16]: > 100 µM | GI50 [17]: > 100 µM | TGI [17]: > 100 µM | GI50 [18]: 5.47 µM | TGI [18]: 55.1 µM | GI50 [19]: > 100 µM | TGI [19]: > 100 µM | GI50 [20]: > 100 µM | TGI [20]: > 100 µM | GI50 [21]: > 100 µM | TGI [21]: > 100 µM | GI50 [22]: > 100 µM | TGI [22]: > 100 µM | GI50 [23]: > 100 µM | TGI [23]: > 100 µM | GI50 [24]: > 100 µM | TGI [24]: > 100 µM | GI50 [25]: 23.7 µM | TGI [25]: > 100 µM | GI50 [26]: > 100 µM | TGI [26]: > 100 µM | GI50 [27]: > 100 µM | TGI [27]: > 100 µM | GI50 [28]: > 100 µM | TGI [28]: > 100 µM | GI50 [29]: > 100 µM | TGI [29]: > 100 µM | GI50 [30]: > 100 µM | TGI [30]: > 100 µM | GI50 [31]: 30.4 µM | TGI [31]: > 100 µM | GI50 [32]: > 100 µM | TGI [32]: > 100 µM | GI50 [33]: > 100 µM | TGI [33]: > 100 µM | GI50 [34]: > 100 µM | TGI [34]: > 100 µM | GI50 [35]: > 100 µM | TGI [35]: > 100 µM | GI50 [36]: > 100 µM | TGI [36]: > 100 µM | GI50 [37]: > 100 µM | TGI [37]: > 100 µM | GI50 [38]: 1.45 µM | TGI [38]: > 100 µM | GI50 [57]: > 100 µM | TGI [57]: > 100 µM | GI50 [40]: > 100 µM | TGI [40]: > 100 µM | GI50 [41]: > 100 µM | TGI [41]: > 100 µM | GI50 [43]: > 100 µM | TGI [43]: > 100 µM | GI50 [44]: > 100 µM | TGI [44]: > 100 µM | GI50 [45]: > 100 µM | TGI [45]: > 100 µM | GI50 [47]: > 100 µM | TGI [47]: > 100 µM | GI50 [58]: 15.9 µM | TGI [58]: > 100 µM | GI50 [48]: 47.4 µM | TGI [48]: > 100 µM | GI50 [49]: > 100 µM | TGI [49]: > 100 µM | GI50 [50]: > 100 µM | TGI [50]: > 100 µM | GI50 [51]: > 100 µM | TGI [51]: > 100 µM | GI50 [52]: 52.4 µM | TGI [52]: > 100 µM | GI50 [53]: > 100 µM | TGI [53]: > 100 µM | GI50 [54]: 48.5 µM | TGI [54]: > 100 µM | GI50 [55]: > 100 µM | TGI [55]: > 100 µM
